Source: ChEMBL document CHEMBL5465560, “Selectivity Literature for EUbOPEN Chemogenomic Library” (2024)

What was measured:
[1] = biological target: T1, Serine/threonine-protein kinase 4 (Homo sapiens) (UniProt Q13043); experiment: Selectivity interaction (Kinase panel (DSF assay)) EUB0001559a STK4
T1 sequence (whole entry): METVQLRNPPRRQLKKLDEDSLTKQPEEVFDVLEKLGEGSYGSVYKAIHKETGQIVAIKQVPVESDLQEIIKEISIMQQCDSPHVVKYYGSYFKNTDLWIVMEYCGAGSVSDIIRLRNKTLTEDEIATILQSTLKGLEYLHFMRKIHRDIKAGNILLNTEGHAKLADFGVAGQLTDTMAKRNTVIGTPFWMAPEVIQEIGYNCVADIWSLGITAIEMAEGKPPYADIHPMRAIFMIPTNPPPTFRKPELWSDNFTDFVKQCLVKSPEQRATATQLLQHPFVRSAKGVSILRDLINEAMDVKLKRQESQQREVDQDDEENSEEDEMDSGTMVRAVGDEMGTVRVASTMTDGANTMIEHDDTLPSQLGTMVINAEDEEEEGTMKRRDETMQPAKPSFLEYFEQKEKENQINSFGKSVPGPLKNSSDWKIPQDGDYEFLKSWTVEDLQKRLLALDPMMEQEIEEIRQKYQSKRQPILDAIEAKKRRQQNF

[2] = biological target: T2, Aurora kinase A (Homo sapiens) (UniProt O14965); experiment: Selectivity interaction (Kinase panel (KiNativ target engagement assay in Jurkat cells)) EUB0001635a STK6; assay type: cell-based; settings: at 1 µM
T2 sequence (whole entry): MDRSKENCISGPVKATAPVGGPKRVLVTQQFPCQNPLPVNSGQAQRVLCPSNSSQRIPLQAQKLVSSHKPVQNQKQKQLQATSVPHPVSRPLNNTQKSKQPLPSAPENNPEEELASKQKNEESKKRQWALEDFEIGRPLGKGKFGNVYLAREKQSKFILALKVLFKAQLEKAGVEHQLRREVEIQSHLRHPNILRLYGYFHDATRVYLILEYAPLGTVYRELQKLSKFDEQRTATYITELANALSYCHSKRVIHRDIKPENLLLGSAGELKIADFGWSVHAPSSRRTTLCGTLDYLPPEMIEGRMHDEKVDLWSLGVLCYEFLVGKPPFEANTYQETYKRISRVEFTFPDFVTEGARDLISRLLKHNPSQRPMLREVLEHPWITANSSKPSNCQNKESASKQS

[3] = biological target: T3, Serine/threonine-protein kinase TAO1 (Homo sapiens) (UniProt Q7L7X3); experiment: Selectivity interaction (KinomeScan (DiscoverX)) EUB0001049a TAOK1; settings: at 1 µM
T3 sequence (whole entry): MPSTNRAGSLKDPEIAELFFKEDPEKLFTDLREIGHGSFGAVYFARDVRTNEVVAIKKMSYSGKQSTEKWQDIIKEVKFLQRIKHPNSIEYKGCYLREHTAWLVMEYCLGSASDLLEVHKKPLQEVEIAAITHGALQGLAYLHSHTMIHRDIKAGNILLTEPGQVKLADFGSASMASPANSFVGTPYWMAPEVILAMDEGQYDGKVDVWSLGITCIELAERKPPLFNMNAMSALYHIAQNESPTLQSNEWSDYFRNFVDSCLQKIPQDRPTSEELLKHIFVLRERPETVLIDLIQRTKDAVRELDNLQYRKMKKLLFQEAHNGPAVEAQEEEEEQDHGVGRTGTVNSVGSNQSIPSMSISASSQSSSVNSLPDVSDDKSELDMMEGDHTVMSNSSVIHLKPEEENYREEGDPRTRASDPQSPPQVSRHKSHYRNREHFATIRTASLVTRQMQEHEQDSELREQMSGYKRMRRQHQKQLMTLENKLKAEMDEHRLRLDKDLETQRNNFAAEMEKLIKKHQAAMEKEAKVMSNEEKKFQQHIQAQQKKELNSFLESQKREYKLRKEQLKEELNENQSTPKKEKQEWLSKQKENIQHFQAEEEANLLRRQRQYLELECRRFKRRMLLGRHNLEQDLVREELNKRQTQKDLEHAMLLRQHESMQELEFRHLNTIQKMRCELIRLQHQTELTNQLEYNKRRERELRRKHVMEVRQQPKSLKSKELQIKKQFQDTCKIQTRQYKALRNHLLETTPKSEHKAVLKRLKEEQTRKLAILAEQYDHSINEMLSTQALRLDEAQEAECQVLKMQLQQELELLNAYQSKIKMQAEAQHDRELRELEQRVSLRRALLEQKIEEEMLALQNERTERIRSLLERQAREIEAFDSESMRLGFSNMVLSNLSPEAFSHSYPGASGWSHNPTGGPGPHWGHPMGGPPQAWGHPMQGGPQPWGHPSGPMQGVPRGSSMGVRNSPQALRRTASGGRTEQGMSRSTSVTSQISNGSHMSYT

[4] = biological target: T4, Tyrosine-protein kinase ITK/TSK (Homo sapiens) (UniProt Q08881); experiment: Selectivity interaction (Ambit KINOMEscan and KiNATiv profiling in Jurkat cells) EUB0000090b ITK; assay type: cell-based; settings: at 1 µM
T4 sequence (whole entry): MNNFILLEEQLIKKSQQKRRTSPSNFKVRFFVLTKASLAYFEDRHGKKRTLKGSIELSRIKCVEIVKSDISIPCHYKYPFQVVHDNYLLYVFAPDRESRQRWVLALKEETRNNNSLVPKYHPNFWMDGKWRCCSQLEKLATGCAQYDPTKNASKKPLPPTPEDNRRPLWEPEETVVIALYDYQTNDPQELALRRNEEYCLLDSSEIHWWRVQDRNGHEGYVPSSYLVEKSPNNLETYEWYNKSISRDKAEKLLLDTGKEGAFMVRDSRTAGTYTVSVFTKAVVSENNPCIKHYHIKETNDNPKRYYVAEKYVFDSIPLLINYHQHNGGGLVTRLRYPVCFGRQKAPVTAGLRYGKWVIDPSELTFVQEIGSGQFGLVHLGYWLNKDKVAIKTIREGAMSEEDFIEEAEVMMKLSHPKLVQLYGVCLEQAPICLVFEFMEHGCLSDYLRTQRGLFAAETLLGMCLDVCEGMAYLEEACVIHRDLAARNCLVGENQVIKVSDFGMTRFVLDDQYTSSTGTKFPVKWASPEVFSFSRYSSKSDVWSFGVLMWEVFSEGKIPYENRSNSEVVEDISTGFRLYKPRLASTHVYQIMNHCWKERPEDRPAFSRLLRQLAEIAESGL

CN(C(=O)c1cnn2cccnc12)c1cc2c(cc1N1CCOCC1)C(=O)N(C[C@@H](F)C(C)(C)O)C2
dTM [1]: -0.1 K

C=CC(=O)Nc1ccc(C(=O)Nc2[nH]nc3c2CN(C(=O)N[C@H](CN(C)C)c2ccccc2)C3(C)C)cc1
% of engagement ([2]; Selectivity number of off-targets 0.0, Selectivity number of targets 233.0, Source Knowledge https://www.sciencedirect.com/science/article/pii/S2451945619300674?via%3Dihub): 22.4%
% of engagement [2]: 26%

COc1cc(Nc2nc(C)cc(-c3cnn4nc(OC)ccc34)n2)cc(C(F)(F)F)c1
% of control [3]: 96%

CN(C)C/C=C/C(=O)Nc1ccc(C(=O)N2CCCC(Nc3ncc(Cl)c(-c4c[nH]c5ccccc45)n3)C2)cc1 (stereo not given)
% of control [4]: 91%
